According to ChEMBL document CHEMBL3102825, “Exploration of a series of 5-arylidene-2-thioxoimidazolidin-4-ones as inhibitors of the cytolytic protein perforin” (J Med Chem, 2013):
Calls of active or inactive are those of the source. No cut-off for these calls is given here.

Target: Perforin-1 (Mus musculus) (UniProt P10820)
Experiment: Reversible binding affinity to recombinant mouse perforin by SPR analysis

Perforin-1 (Mus musculus), sequence (P10820 whole entry, looked up): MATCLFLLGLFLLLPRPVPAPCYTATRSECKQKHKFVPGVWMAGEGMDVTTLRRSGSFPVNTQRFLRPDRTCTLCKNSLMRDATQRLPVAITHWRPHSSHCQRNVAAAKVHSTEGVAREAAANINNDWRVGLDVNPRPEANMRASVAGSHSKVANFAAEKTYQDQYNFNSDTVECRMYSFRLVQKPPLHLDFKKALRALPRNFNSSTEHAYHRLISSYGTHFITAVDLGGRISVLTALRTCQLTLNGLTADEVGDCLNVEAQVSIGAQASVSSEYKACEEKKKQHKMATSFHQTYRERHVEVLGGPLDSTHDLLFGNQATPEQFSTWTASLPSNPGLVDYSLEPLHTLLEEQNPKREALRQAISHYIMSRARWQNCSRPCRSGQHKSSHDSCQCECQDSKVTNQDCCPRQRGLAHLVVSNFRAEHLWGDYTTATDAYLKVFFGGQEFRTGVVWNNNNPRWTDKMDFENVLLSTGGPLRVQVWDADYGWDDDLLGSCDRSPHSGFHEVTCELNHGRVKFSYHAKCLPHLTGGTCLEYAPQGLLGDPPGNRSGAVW

SMILES	Activity
O=C1NC(=S)[N-]/C1=C/c1ccc(-c2ccc3c(c2)CCNC3=O)s1.[Na+]	Active
CC1c2cc(-c3ccc(/C=C4/[N-]C(=S)NC4=O)s3)ccc2C(=O)N1C.[Na+] (configuration not stated)	Active
